Assay results from US20190336598A1, “METHODS FOR MODULATING INFLAMMASOME ACTIVITY AND INFLAMMATION IN THE LUNG” (UNIVERSITY OF MIAMI, priority 2016, published 2019).
Entries after “also recorded” stand apart in the source; their conditions may differ.

B1: IC 100: humanized monoclonal antibody against ASC; recognizes murine, human and swine ASC (antibody, V domains shown)
VH: QVTLKESGPALVKPTQTLTLTCSFSGFSLSTSGMGVSWIRQPAGKGLEWLAHIYWDDDKRYNPSLKSRLTISKDSSKNQVVLTMTNMDPVDTATYSCARSTPIVANAMDYWGQGTLVTVSS
VL: DIVMTQSPDSLAVSLGERATINCKASQSVDYDGDSYMNWYQQKPGQPPKLLIYAASNLESGIPARFSGSGSGTDFTLTISSLQPEDVATYYCQQSNEDPYTFGQGTKLEIK

Legend:
Type in all cases: in vivo, C57-BL6 mice
[1] = system: lungs of animals delivered EV from injured mice (ALI); assay: Histology (H&E) and acute lung injury scoring after adoptive transfer of EV from TBI mice and treatment; settings: Enoxaparin 3 mg/kg or IC 100 5 mg/kg one hour after EV from TBI mice; for neutrophil infiltration into alveolar and interstitial space (H&E stained lung sections, FIG. 9A-D) / septal thickening (H&E stained lung sections, FIG. 9A-D): lungs 24 hours after injection; for ALI score (FIG. 9E): vs untreated group, score 0 (no injury) to 1 (severe injury), p=<0.0001
Protocol: (§1) Serum-derived EV from C57BL-6 TBI and sham mice were injected into naïve C57BL-6 mice through the jugular vein at a dose of 1.0×10^10 particles per gram/body weight^48. Particle count was measured by Nanosight Tracking analysis and samples were diluted accordingly. Prior to surgery animals were anesthetized with ketamine and […]. A 1-2 cm incision was made between the jaw and the clavicle. The jugular vein was elevated and tied, followed by catheter placement. Serum-derived EV were transferred and lung and brain tissues were collected 24 hours after injection for analysis (n=5).
(§2) Serum-derived EV from TBI mice were injected into naïve C57-BL6 mice through a jugular vein injection. One hour later, Enoxaparin (3 mg/kg) (n=4) and Anti-ASC (5 mg/kg) (n=4) were administered to recipient animals. The following groups were used: 1) the naïve group received no treatment, 2) the sham saline group was used as a negative control and underwent jugular vein injection of only saline, 3) the untreated group received EV from TBI mice without any treatment and was used as a positive control, 4) the ENOX group received EV from TBI mice and Enoxaparin, and 5) the Anti-ASC group received EV from TBI mice and Anti-ASC. The order of treatment was randomized. Lung and brain tissues were collected 24 hours after injection for analysis. It should be noted that the anti-ASC antibody used in the treatment experiments was a humanized monoclonal antibody against ASC and recognizes murine, human and swine ASC.
Lung tissue sections were stained by a standard hematoxylin and eosin method for histology, morphometry and ALI scoring. Lung sections were scored by a blinded pathologist using the Lung Injury Scoring System from the American Thoracic Society Workshop Report (17). Twenty random high power fields were chosen for scoring. Criteria for ALI scoring was based on number of neutrophils in the alveolar space, interstitial space, hyaline membranes, proteinaceous debris filling the airspaces and alveolar septal thickening. Based on these criteria a score between 0 (no injury) and 1 (severe injury) was given.

[2] = system: inflammasome proteins (caspase-1, ASC, IL-1β, AIM2, HMGB1) in lungs; assay: Immunoblot of inflammasome proteins in lungs after adoptive transfer of EV from TBI mice and treatment; settings: vs untreated positive control animals; Enoxaparin 3 mg/kg, IC 100 5 mg/kg; N=4 per group
[3] = system: inflammasome proteins (caspase-1, ASC, IL-1β, AIM2, HMGB1) in lungs; assay: as above; settings: vs untreated positive control; Enoxaparin 3 mg/kg or IC 100 5 mg/kg one hour after EV from TBI mice; lungs collected 24 hours after injection; p=<0.0001
Protocol: Lung and brain tissue samples were snap frozen in liquid nitrogen and stored in −80° C. 2-mm sections of right lower lung and right cortical tissue were homogenized in extraction buffer containing protease and phosphatase inhibitor cocktail (Sigma, St Louis, Mo., USA) and resolved in 4-20% Tris-TGX Criterion precasted gels (Bio-Rad, Hercules, Calif., USA) as described in de Rivero Vaccari et al. 2015 (13) using antibodies to caspase-1 (Novus Biologicals), ASC (Santa Cruz), IL-1 β (Cell Signaling), IL-18 (Abcam) AIM2 (Santa Cruz) and HMGB1 (Millipore). Quantification of band density was performed using Image Lab and all data were normalized to β-actin.
as §1, §2

Row | Molecule | neutrophil infiltration into alveolar and interstitial space (H&E stained lung sections, FIG. 9A-D) [1] | septal thickening (H&E stained lung sections, FIG. 9A-D) [1] | ALI score (FIG. 9E) [1] | IL-1β in lungs (FIG. 8D) [2] | AIM2 in lungs (FIG. 8E) [3] | ASC in lungs (FIG. 8C) [3] | Caspase-1 in lungs (FIG. 8B) [3] | HMGB1 in lungs (FIG. 8F) [3] | IL-1β in lungs (FIG. 8D) [3]
1 | Enoxaparin | significantly less | no signs | significantly lower; also recorded: significantly decreased | reduced | significantly reduced | significantly reduced | significantly reduced | significantly reduced | significantly reduced
2 | B1 | significantly less | no signs | significantly lower; also recorded: significantly decreased | reduced | significantly reduced | significantly reduced | significantly reduced | significantly reduced | significantly reduced
